Data on 29 molecules can be found in US9889122B2, “Positive allosteric modulators of nicotinic acetylcholine receptor” (H. Lundbeck A/S, priority 2011, dated 2018).

A word on the EC50: it is the midpoint of the concentration-response curve.

For the assay, the target named is T1, human α7 receptor (Homo sapiens, UniProt P36544).
T1 construct: host or cells: rat GH4C1 cell line
Description: α7 NNR flux assay (FDSS Ca assay, Calcium-4 dye, positive allosteric modulation of acetylcholine response). The format is cell-based. The following applies: human α7 receptor stably expressed in rat GH4C1 cell line; acetylcholine 20 μM (~EC100); % modulation relative to reference PNU-120596 set to 100%. The protocol: The nicotinic acetylcholine receptor α7 is a calcium-permeable ion channel, whose activity can be measured by over expression in mammalian cells or oocytes in this version of the assay, the human α7 receptor is stably expressed in the rat GH4C1 cell line. The assay was used to identify positive allosteric modulators (PAMs) of the α7 receptor. Activation of the channel was measured by loading cells with the calcium-sensitive fluorescent dye Calcium-4 (Assay kit from Molecular Devices), and then measuring real-time changes in fluorescence upon treatment with test compounds.
The cell line ChanClone GH4C1-nAChRalpha7 from Genionics was seeded from frozen stock in 384-well plates in culture media 2-3 days before experiment to form an approximately 80% confluent layer on the day of experiment.
Two or three days before the experiment the cells were seeded in 384 well plates from Greiner bio-one (781946, CELLCOAT, Poly-D-Lysine, black, μClear).
The cells were seeded in 384 well plates with 30 μL/well (30000 cells/well) while stirring the cell suspension or otherwise preventing the cells from precipitating.
The loading buffer was 5% v/v Calcium-4 Kit and 2.5 mM Probenecid in assay buffer.
Culture media were removed from the cell plates and 20 μL loading buffer was added in each well. The cell plates were placed in trays and incubated 90 minutes in the incubator (37° C.). Thereafter the plates were incubated 30 minutes at room temperature, still protected from light.
The assay buffer was HBSS with 20 mM HEPES, pH 7.4 and 3 mM CaCl2.
200 nL 10 mM compound solution in DMSO was diluted in 50 μL assay buffer. The final test concentrations in the cell plates were 20-10-5-2.5-1:25-0.625-0.312-0.156-0.078-0.039 μM. Assay buffer and 3 μM PNU-120596 were used for control.
The agonist acetylcholine was added to a final concentration of 20 μM (˜EC100).
In the FDSS7000 the Ex480-Em540 was measured with 1 second intervals. The baseline was made of 5 frames before addition of test compounds, and 95 frames more were made before addition of acetylcholine. The measurement stopped 30 frames after the 2nd addition. Raw data for each well were collected as “the maximum fluorescence count” in the interval 100-131 seconds and as “the average fluorescence count” in the interval 96-100 seconds. The positive allosteric modulation in the 2nd addition was the enhancement of agonist response with test compound compared to agonist alone.
Results were calculated as % modulation of test compound compared to the reference PNU-120596 set to 100%.

T1 sequence (P36544 23-502): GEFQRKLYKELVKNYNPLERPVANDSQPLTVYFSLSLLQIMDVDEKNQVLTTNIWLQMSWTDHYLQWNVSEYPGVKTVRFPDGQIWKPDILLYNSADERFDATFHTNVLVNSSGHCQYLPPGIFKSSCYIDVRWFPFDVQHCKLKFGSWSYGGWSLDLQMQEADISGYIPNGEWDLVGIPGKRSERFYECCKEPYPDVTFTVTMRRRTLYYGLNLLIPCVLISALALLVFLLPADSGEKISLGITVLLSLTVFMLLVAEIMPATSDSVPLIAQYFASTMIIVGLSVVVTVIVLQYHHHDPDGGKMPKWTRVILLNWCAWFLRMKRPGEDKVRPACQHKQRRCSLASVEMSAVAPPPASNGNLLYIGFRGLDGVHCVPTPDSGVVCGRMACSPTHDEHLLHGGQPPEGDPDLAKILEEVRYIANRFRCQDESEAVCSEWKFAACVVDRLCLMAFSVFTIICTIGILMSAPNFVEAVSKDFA

Consider `CC(C)Oc1ccc([C@H](C)NC(=O)[C@H]2C[C@@H]2c2ccccc2)cn1` [Compound 1, (1S,2S)-2-Phenyl-cyclopropanecarboxylic acid [(S)-1-(6-isopropoxy-pyridin-3-yl)-ethyl]-amide], for which the EC50 was determined as 0.67 µM. Regarding `Cc1ccc([C@H](C)NC(=O)[C@H]2C[C@@H]2c2ccccc2)nc1` [Compound 2, (1S,2S)-2-Phenyl-cyclopropanecarboxylic acid [(S)-1-(5-methyl-pyridin-2-yl)-ethyl]-amide], the EC50 was 5.6 µM. Then `COc1ccc([C@H](C)NC(=O)[C@H]2C[C@@H]2c2ccccc2)cn1` [Compound 3, (S, 2S)-2-Phenyl-cyclopropanecarboxylic acid-[(S)-1-(6-methoxy-pyridin-3-yl)-ethyl]-amide], with 5.8 µM.

For `Cc1ccc([C@H](C)NC(=O)[C@H]2C[C@@H]2c2ccccc2)cn1` [Compound 4, (1S,2S)-2-Phenyl-cyclopropanecarboxylic acid [(S)-1-(6-methyl-pyridin-3-yl)-ethyl]-amide], the EC50 came out at 8.1 µM.

`C[C@H](NC(=O)[C@H]1C[C@@H]1c1ccccc1)c1ccc(C#N)nc1` [Compound 5, (1S,2S)-2-Phenyl-cyclopropanecarboxylic acid [(S)-1-(6-cyano-pyridin-3-yl)-ethyl]-amide]: the EC50 was found to be 7.7 µM. On to `C[C@H](NC(=O)[C@H]1C[C@@H]1c1ccccc1)c1ccc(C(F)(F)F)nc1` [Compound 6, (1S,2S)-2-Phenyl-cyclopropanecarboxylic acid [(S)-1-(6-trifluoromethyl-pyridin-3-yl)-ethyl]-amide], for which the EC50 worked out at 5.2 µM. Then `CCOc1ccc([C@H](C)NC(=O)[C@H]2C[C@@H]2c2ccccc2)cn1` [Compound 7, (1S,2S)-2-Phenyl-cyclopropanecarboxylic acid [(S)-1-(6-ethoxy-pyridin-3-yl)-ethyl]-amide], with 0.96 µM; and `CCc1ccc([C@H](C)NC(=O)[C@H]2C[C@@H]2c2ccccc2)cn1` [Compound 8, (1S,2S)-2-Phenyl-cyclopropanecarboxylic acid [(S)-1-(6-ethyl-pyridin-3-yl)-ethyl]-amide], with 3.7 µM.

Turning to `COCc1ccc([C@H](C)NC(=O)[C@H]2C[C@@H]2c2ccccc2)cn1` [Compound 9, (1S,2S)-2-Phenyl-cyclopropanecarboxylic acid [(S)-1-(6-methoxymethyl-pyridin-3-yl)-ethyl]-amide], the EC50 was 6.2 µM.

Turning to `C[C@H](NC(=O)[C@H]1C[C@@H]1c1ccccc1)c1ccc(OCC(F)(F)F)nc1` [Compound 10, (1S,2S)-2-Phenyl-cyclopropanecarboxylic acid {(S)-1-[6-(2,2,2-trifluoro-ethoxy)-pyridin-3-yl]-ethyl}-amide], the EC50 came out at 1.9 µM. For `COCCOc1ccc([C@H](C)NC(=O)[C@H]2C[C@@H]2c2ccccc2)cn1` [Compound 11, (1S,2S)-2-Phenyl-cyclopropanecarboxylic acid {(S)-1-[6-(2-methoxy-ethoxy)-pyridin-3-yl]-ethyl}-amide], the EC50 turned out to be 3.8 µM. Then `CCOc1cc([C@H](C)NC(=O)[C@H]2C[C@@H]2c2ccccc2)ccn1` [Compound 12, (1S,2S)-2-Phenyl-cyclopropanecarboxylic acid [(S)-1-(2-ethoxy-pyridin-4-yl)-ethyl]-amide], with 1.2 µM; and `C[C@H](NC(=O)[C@H]1C[C@@H]1c1ccccc1)c1ccc(O[C@H]2CCOC2)nc1` [Compound 13, (1S,2S)-2-Phenyl-cyclopropanecarboxylic acid [(S)-1-{6-[(S)-(tetrahydro-furan-3-yl)oxy]-pyridin-3-yl]-ethyl}-amide], with 1.6 µM; and `C[C@H](NC(=O)[C@H]1C[C@@H]1c1ccccc1)c1ccc(O[C@@H]2CCOC2)nc1` [Compound 14, (1S,2S)-2-Phenyl-cyclopropanecarboxylic acid [(S)-1-{6-[(R)-(tetrahydro-furan-3-yl)oxy]-pyridin-3-yl]-ethyl}-amide], with 1.6 µM. Regarding `C[C@H](NC(=O)[C@H]1C[C@@H]1c1ccccc1)c1cnc2c(c1)OCO2` [Compound 15, (1S,2S)-2-Phenyl-cyclopropanecarboxylic acid ((S)-1-[1,3]dioxolo[4,5-b]pyridin-6-yl-ethyl)-amide], the EC50 worked out at 5.6 µM.

`C[C@H](NC(=O)[C@H]1C[C@@H]1c1ccccc1)c1cnc2c(c1)OCCO2` [Compound 16, (1S,2S)-2-Phenyl-cyclopropanecarboxylic acid [(S)-1-(2,3-dihydro-[1,4]dioxino[2,3-b]pyridin-7-yl)-ethyl]-amide]: the EC50 stood at 6.8 µM.

On to `CCOc1ncc([C@H](C)NC(=O)[C@H]2C[C@@H]2c2ccccc2)cn1` [Compound 17, (1S,2S)-2-Phenyl-cyclopropanecarboxylic acid [(S)-1-(2-ethoxy-pyrimidin-5-yl)-ethyl]-amide], for which the concentration giving a half-maximal response (EC50) came to 3.7 µM. `C[C@H](NC(=O)[C@H]1C[C@@H]1c1ccccc1)c1ccc(Cl)nc1` [Compound 18, (1S,2S)-2-Phenyl-cyclopropanecarboxylic acid [(S)-1-(6-chloro-pyridin-3-yl)-ethyl]-amide]: the EC50 was found to be 3.7 µM. On to `CCCOc1ccc([C@H](CO)NC(=O)[C@H]2C[C@@H]2c2ccccc2)cn1` [Compound 21, (1S,2S)-2-Phenyl-cyclopropanecarboxylic acid [(R)-2-hydroxy-1-(6-propoxy-pyridin-3-yl)-ethyl]-amide], for which the EC50 is 0.64 µM. As to `O=C(N[C@@H](CO)c1ccc(C(F)(F)F)nc1)[C@H]1C[C@@H]1c1ccccc1` [Compound 22, (1S,2S)-2-Phenyl-cyclopropanecarboxylic acid [(R)-2-hydroxy-1-(6-trifluoromethyl-pyridin-3-yl)-ethyl]-amide], the 50% effective concentration (EC50) is 5.5 µM. For `N#Cc1ccc([C@H](CO)NC(=O)[C@H]2C[C@@H]2c2ccccc2)nc1` [Compound 23, (1S,2S)-2-Phenyl-cyclopropanecarboxylic acid [(R)-1-(5-cyano-pyridin-2-yl)-2-hydroxy-ethyl]-amide], the concentration for a half-maximal effect (EC50) was 7.6 µM.

For the molecule `COc1ccc([C@H](CO)NC(=O)[C@H]2C[C@@H]2c2ccccc2)cn1` [Compound 24, (1S,2S)-2-Phenyl-cyclopropanecarboxylic acid [(R)-2-hydroxy-1-(6-methoxy-pyridin-3-yl)-ethyl]-amide], the EC50 was 5.2 µM. For the molecule `Cc1ccc([C@H](CO)NC(=O)[C@H]2C[C@@H]2c2ccccc2)cn1` [Compound 25, (1S,2S)-2-Phenyl-cyclopropanecarboxylic acid [(R)-2-hydroxy-1-(6-methyl-pyridin-3-yl)-ethyl]-amide], the EC50 was determined as 7.3 µM. With `CC(C)Oc1ccc([C@H](CO)NC(=O)[C@H]2C[C@@H]2c2ccccc2)cn1` [Compound 26, (1S,2S)-2-Phenyl-cyclopropanecarboxylic acid [(R)-2-hydroxy-1-(6-isopropoxy-pyridin-3-yl)-ethyl]-amide] the figure was 0.39 µM; with `CCOc1ccc([C@H](CO)NC(=O)[C@H]2C[C@@H]2c2cccc(F)c2)cn1` [Compound 27, (1S,2S)-2-(3-Fluoro-phenyl)-cyclopropanecarboxylic acid [(R)-1-(6-ethoxy-pyridin-3-yl)-2-hydroxy-ethyl]-amide], 0.39 µM. With `CCOc1ccc([C@H](CO)NC(=O)[C@H]2C[C@@H]2c2ccc(F)cc2)cn1` [Compound 28, (1S,2S)-2-(4-Fluoro-phenyl)-cyclopropanecarboxylic acid [(R)-1-(6-ethoxy-pyridin-3-yl)-2-hydroxy-ethyl]-amide] the figure was 0.62 µM. For the molecule `CCCOc1ccc([C@H](CO)NC(=O)[C@H]2C[C@@H]2c2cccc(F)c2)cn1` [Compound 29, (1S,2S)-2-(3-Fluoro-phenyl)-cyclopropanecarboxylic acid [(R)-2-hydroxy-1-(6-propoxy-pyridin-3-yl)-ethyl]-amide], the EC50 worked out at 0.86 µM. With `[2H]C([2H])([2H])COc1ccc([C@H](CO)NC(=O)[C@H]2C[C@@H]2c2ccccc2)cn1` [Compound 31, (1S,2S)-2-Phenyl-cyclopropanecarboxylic acid [(R)-1-(6-(2,2,2-d3)-ethoxy-pyridin-3-yl)-2-hydroxy-ethyl]-amide] the figure was 1.7 µM; with `[2H]C([2H])(C)Oc1ccc([C@H](CO)NC(=O)[C@H]2C[C@@H]2c2cccc(F)c2)cn1` [Compound 32, (1S,2S)-2-(3-Fluoro-phenyl)-cyclopropanecarboxylic acid [(R)-1-(6-(1,1-d2)-ethoxy-pyridin-3-yl)-2-hydroxy-ethyl]-amide], 0.53 µM.
